In patent US3985875A, “ω-(N-acylamino)alkylphosphoryl ethanolamines, pharmaceutical compositions containing them, and their uses” (Dainippon Pharmaceutical Co., Ltd., priority 1974, dated 1976):

How the values were obtained:
[1] = biological target: T1, High renin plasma (Canis lupus familiaris, UniProt Q6DYE7); experiment: Renin-inhibitory activity, Method II (high renin plasma of dog, inhibition of Angiotensin I formation); type: biochemical; settings: Table 2; 37°C, 4 hours, 1.25 mg/ml; read-out: Rate of inhibiting the formation of Angiotensin I determined by Method II
T1 construct: High renin plasma prepared by constriction of the renal artery of a dog anesthetized with Nembutal; from tissue; host or cells: plasma of a dog with constricted renal artery
T1 sequence (Q6DYE7 66-403): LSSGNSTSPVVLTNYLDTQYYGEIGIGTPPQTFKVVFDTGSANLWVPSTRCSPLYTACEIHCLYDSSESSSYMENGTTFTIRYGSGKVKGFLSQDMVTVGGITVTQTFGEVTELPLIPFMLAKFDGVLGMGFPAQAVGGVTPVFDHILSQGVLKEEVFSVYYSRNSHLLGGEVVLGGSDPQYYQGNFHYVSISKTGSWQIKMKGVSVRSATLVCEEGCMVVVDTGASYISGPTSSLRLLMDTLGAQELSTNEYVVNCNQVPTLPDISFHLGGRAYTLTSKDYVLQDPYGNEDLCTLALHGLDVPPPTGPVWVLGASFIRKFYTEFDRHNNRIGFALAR
Experimental: High renin plasma prepared by constriction of the renal artery of a dog anesthetized with Nembutal (the plasma which when incubated at 37°40 C. for 6 hours, yields 30 to […]. of Angiotensin I) was incubated at 37° C. for 2 to 6 hours in the same way as in Method I, and also under the same conditions in the presence of 1.25 mg/ml. of each of the test compounds.
(§1) The results are shown in Table 1 (the rate of inhibiting the formation of Angiotensin I, as determined by Method I, when the plasma was incubated at 37° C. for 2, 4 and 6 hours respectively), and Table 2 (the rate of inhibiting the formation of Angiotensin I when the plasma was incubated at 37° C. for 4 hours, with the compound concentration of 1.25 mg/ml.)

[2] = tested on: renal hypertensive rats; experiment: Antihypertensive activity in renal hypertensive rats, i.m. (Table 3); type: in vivo, rat; settings: 30 mg/kg/day i.m.
Experimental: (§2) An aqueous solution or suspension in peanut oil of each test compound as administered intramuscularly (i.m.) or orally (p.o.) at a dose of 30 to 100 mg/kg (body weight)/day once every morning over the period of 6 to 7 days.
(§3) The blood pressure of each rat was measured daily before and 5 hours after each administration. Furthermore, the blood pressure was measured every morning after drug withdrawal over a period of 3 to 6 days.
(§4) Test compounds (1)-(4) decreased the blood pressure of renal hypertensive rats with a dose of 30 mg/kg/day i.m.. […] The antihypertensive rats with a dose of 100 mg/kg/day p.o..

[3] = biological target: T2, Renin (Homo sapiens, UniProt P00797); experiment: Renin-inhibitory activity, Method I (inhibition of Angiotensin I formation, RIA); type: biochemical; settings: Table 2; 37°C, 4 hours, 1.25 mg/ml; read-out: Rate of inhibiting the formation of Angiotensin I determined by Method I
T2 sequence (P00797 67-406): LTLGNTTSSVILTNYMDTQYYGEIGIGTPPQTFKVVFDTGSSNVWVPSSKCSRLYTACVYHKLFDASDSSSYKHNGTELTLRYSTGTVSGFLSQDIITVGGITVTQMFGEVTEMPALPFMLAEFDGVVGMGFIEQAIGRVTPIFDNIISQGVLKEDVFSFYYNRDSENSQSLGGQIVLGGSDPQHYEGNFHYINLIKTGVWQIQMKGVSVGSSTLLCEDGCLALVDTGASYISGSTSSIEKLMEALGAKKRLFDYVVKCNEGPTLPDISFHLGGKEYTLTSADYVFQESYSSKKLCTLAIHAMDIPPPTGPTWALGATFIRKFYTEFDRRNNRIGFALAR
Experimental: Renin (see E. Haas et al. Circulation Research, Vol. 19, p. 739, 1966 and Vol. 31, p. 65, 1972) was incubated in Angiotensinogen at 37° C. for 2 to 6 hours. Similarly, renin was incubated under the same conditions in the presence of 0.313 to 2.5 mg/ml. of each of the test compounds listed above. The amount of Angiotensin I was measured by radioimmunoassay (RIA) (E. Haber et al., J. Clin. Endocrinol., Vol. 29, p. 1349, 1969), and made the renin activity.
as §1

[4] = tested on: renal hypertensive rats; experiment: Antihypertensive activity in rats, p.o. (Table 4); type: in vivo, rat; settings: 100 mg/kg/day p.o.
Experimental: as §2, §3, §4

[5] = 1st day, 0 h (immediately before administration)
[6] = 1st day, 5 hours after administration
[7] = 2nd day, 0 h (immediately before administration)
[8] = 2nd day, 5 hours after administration
[9] = 3rd day, 0 h (immediately before administration)
[10] = 3rd day, 5 hours after administration
[11] = 4th day, 0 h (immediately before administration)
[12] = 4th day, 5 hours after administration
[13] = 5th day, 0 h (immediately before administration)
[14] = 5th day, 5 hours after administration
[15] = 6th day, 0 h (immediately before administration)
[16] = 6th day, 5 hours after administration
[17] = 7th day, 0 h (immediately before administration)
[18] = 7th day, 5 hours after administration

CCC=CCC=CCC=CCCCCCCCC(=O)NCCOP(=O)(O)OCCN [(1), 2-(Octadeca-9,12,15-trienoylamino)ethylphosphoryl ethanolamine]
inhibition at 1250 µg/mL [1]: 50%
Changes of blood pressure after drug withdrawal ([2]; 1st day after withdrawal): -21 mmHg
Changes of blood pressure [2, 5]: 0 mmHg
Changes of blood pressure [2, 6]: -17 mmHg
Changes of blood pressure after drug withdrawal ([2]; 2nd day after withdrawal): -13 mmHg
Changes of blood pressure [2, 7]: -6 mmHg
Changes of blood pressure [2, 8]: -33 mmHg
Changes of blood pressure after drug withdrawal ([2]; 3rd day after withdrawal): -4 mmHg
Changes of blood pressure [2, 9]: -8 mmHg
Changes of blood pressure [2, 10]: -35 mmHg
Changes of blood pressure [2, 11]: -16 mmHg
Changes of blood pressure [2, 12]: -37 mmHg
Changes of blood pressure [2, 13]: -20 mmHg
Changes of blood pressure [2, 14]: -35 mmHg
Changes of blood pressure [2, 15]: -24 mmHg
Changes of blood pressure [2, 16]: -35 mmHg
inhibition at 1250 µg/mL [3]: 61%

CCCCCC=CCC=CCCCCCCCC(=O)NCCOP(=O)(O)OCCN [(3), 2-(Octadeca-9,12-dienoylamino)ethylphosphoryl ethanolamine]
inhibition at 1250 µg/mL [1]: 21%
Changes of blood pressure after drug withdrawal ([2]; 1st day after withdrawal): -39 mmHg
Changes of blood pressure [2, 5]: 0 mmHg
Changes of blood pressure [2, 6]: -12 mmHg
Changes of blood pressure after drug withdrawal ([2]; 2nd day after withdrawal): -8 mmHg
Changes of blood pressure [2, 7]: -1 mmHg
Changes of blood pressure [2, 8]: -9 mmHg
Changes of blood pressure after drug withdrawal ([2]; 3rd day after withdrawal): -1 mmHg
Changes of blood pressure [2, 9]: -8 mmHg
Changes of blood pressure [2, 10]: -17 mmHg
Changes of blood pressure [2, 11]: -23 mmHg
Changes of blood pressure [2, 12]: -38 mmHg
Changes of blood pressure [2, 13]: -27 mmHg
Changes of blood pressure [2, 14]: -39 mmHg
Changes of blood pressure [2, 15]: -35 mmHg
Changes of blood pressure [2, 16]: -48 mmHg
inhibition at 1250 µg/mL [3]: 25%

CCCCCC=CCC=CCCCCCCCC(=O)NCCCOP(=O)(O)OCCN [(4), 3-(Octadeca-9,12-dienoylamino)propylphosphoryl ethanolamine]
inhibition at 1250 µg/mL [1]: 24%
Changes of blood pressure after drug withdrawal ([2]; 1st day after withdrawal): -29 mmHg
Changes of blood pressure [2, 5]: 0 mmHg
Changes of blood pressure [2, 6]: -15 mmHg
Changes of blood pressure after drug withdrawal ([2]; 2nd day after withdrawal): -12 mmHg
Changes of blood pressure [2, 7]: -7 mmHg
Changes of blood pressure [2, 8]: -20 mmHg
Changes of blood pressure after drug withdrawal ([2]; 3rd day after withdrawal): -2 mmHg
Changes of blood pressure [2, 9]: -12 mmHg
Changes of blood pressure [2, 10]: -27 mmHg
Changes of blood pressure [2, 11]: -22 mmHg
Changes of blood pressure [2, 12]: -37 mmHg
Changes of blood pressure [2, 13]: -28 mmHg
Changes of blood pressure [2, 14]: -41 mmHg
Changes of blood pressure [2, 15]: -27 mmHg
Changes of blood pressure [2, 16]: -41 mmHg
inhibition at 1250 µg/mL [3]: 29%

NCCOP(=O)(O)OCCCNC(=O)COc1ccc(Oc2ccc(Cl)cc2)cc1 [(7), 3-[4-(4'-chlorophenoxy)phenoxyacetylamino]propylphosphoryl ethanolamine]
inhibition at 1250 µg/mL [1]: 52%
inhibition at 1250 µg/mL [3]: 64%
Changes of blood pressure after drug withdrawal ([4]; 1st day after withdrawal): -19 mmHg
Changes of blood pressure [4, 5]: 0 mmHg
Changes of blood pressure [4, 6]: -6 mmHg
Changes of blood pressure after drug withdrawal ([4]; 2nd day after withdrawal): -11 mmHg
Changes of blood pressure [4, 7]: -3 mmHg
Changes of blood pressure [4, 8]: -10 mmHg
Changes of blood pressure after drug withdrawal ([4]; 3rd day after withdrawal): -5 mmHg
Changes of blood pressure [4, 9]: -3 mmHg
Changes of blood pressure [4, 10]: -18 mmHg
Changes of blood pressure after drug withdrawal ([4]; 4th day after withdrawal): -5 mmHg
Changes of blood pressure [4, 11]: -10 mmHg
Changes of blood pressure [4, 12]: -19 mmHg
Changes of blood pressure after drug withdrawal ([4]; 5th day after withdrawal): -3 mmHg
Changes of blood pressure [4, 13]: -10 mmHg
Changes of blood pressure [4, 14]: -21 mmHg
Changes of blood pressure after drug withdrawal ([4]; 6th day after withdrawal): -1 mmHg
Changes of blood pressure [4, 15]: -11 mmHg
Changes of blood pressure [4, 16]: -25 mmHg
Changes of blood pressure [4, 17]: -18 mmHg
Changes of blood pressure [4, 18]: -28 mmHg

CC(Oc1ccc(Oc2ccc(Cl)cc2)cc1)C(=O)NCCCOP(=O)(O)OCCN (stereo not drawn) [(8), 3-{α-[4-(4'-chlorophenoxy)phenoxy]propionylamino} propylphosphoryl ethanolamine]
inhibition at 1250 µg/mL [1]: 51%
inhibition at 1250 µg/mL [3]: 67%
Changes of blood pressure after drug withdrawal ([4]; 1st day after withdrawal): -22 mmHg
Changes of blood pressure [4, 5]: 0 mmHg
Changes of blood pressure [4, 6]: +4 mmHg
Changes of blood pressure after drug withdrawal ([4]; 2nd day after withdrawal): -12 mmHg
Changes of blood pressure [4, 7]: +5 mmHg
Changes of blood pressure [4, 8]: -1 mmHg
Changes of blood pressure after drug withdrawal ([4]; 3rd day after withdrawal): -5 mmHg
Changes of blood pressure [4, 9]: -6 mmHg
Changes of blood pressure [4, 10]: -13 mmHg
Changes of blood pressure after drug withdrawal ([4]; 4th day after withdrawal): +2 mmHg
Changes of blood pressure [4, 11]: -10 mmHg
Changes of blood pressure [4, 12]: -16 mmHg
Changes of blood pressure after drug withdrawal ([4]; 5th day after withdrawal): +1 mmHg
Changes of blood pressure [4, 13]: -10 mmHg
Changes of blood pressure [4, 14]: -16 mmHg
Changes of blood pressure after drug withdrawal ([4]; 6th day after withdrawal): +1 mmHg
Changes of blood pressure [4, 15]: -9 mmHg
Changes of blood pressure [4, 16]: -23 mmHg
Changes of blood pressure [4, 17]: -13 mmHg
Changes of blood pressure [4, 18]: -25 mmHg
